Literature values as cited in US20110184054A1, “Alpha-lipoic acid concentrate” (AQUANOVA GERMAN SOLUBILISATE TECHNOLOGIES (AGT) GmbH, priority 2004, published 2011).

What was measured:
[1] = test system: overweight patients
[2] = test system: rats

Q: Which “effect on problems of overweight patients” value [1] does the source give for `O=C(O)CCCCC1CCSS1` (stereo not drawn) [α-lipoic acid] here?
A: alleviates their problems

Q: What about the appetite suppressing effect [2] of the same compound?
A: a certain appetite suppressing effect
